{"source": "patent US20230312670A1", "about": "“MYELIN OLIGODENDROCYTE GLYCOPROTEIN-SPECIFIC PEPTIDE FOR THE TREATMENT OR PREVENTION OF MULTIPLE SCLEROSIS” (LOMA LINDA UNIVERSITY, priority 2016, published 2023)", "key": {"[1]": {"test_system": "MOG196-specific Qa-1^b-restricted CD8^+ T cells", "assay": "In vitro stimulation of CD8+ T cells with MOG196-pulsed antigen-presenting cells, Qa-1^b/MOG196 tetramer staining", "type": "cell-based", "conditions": "weekly stimulation with MOG196-pulsed APCs from K^b−/−d^b−/− or C57Bl/6 mice; beginning on day 14", "procedure": "FIG. 4A-4D. MOG196 can bind to Qa-1^b and stimulate MOG196-specific Qa-1^b-restricted CD8^+ T cells. (A) MOG196 was incubated with recombinant Qa-1^b and β2 microglobulin in a protein refolding buffer at 10° C. under gentle agitation (60 rpm) for four days. The solution was separated by a size exclusion column. Peak “A” and “B” represented typical non-specific protein aggregates and correctly refolded MOG196/Qa-1^b monomer, respectively. (B) Monomers in peak B of panel “A” were further analyzed by an anion exchange chromatography. (C) Proteins in peaks “A”, “B1”, and “B2” were biotinylated and portions of the biotinylated proteins were incubated with streptavidin (SA) to examine formation of tetramers. The biotinylated proteins and corresponding tetramers were analyzed in a non-denature protein gel. Arrows show protein bands for MOG196/Qa-1^b monomers. […] The CD8^+ T cells were analyzed for binding to Qa-1^b/MOG196 tetramer at days 0, 7, and 14. […]\nMultichromatic flow cytometry: Briefly, about 0.5-1×10^6 cells in a FACS buffer (PBS containing 1% FBS and 0.05% sodium azide) were stained with various fluorescence-conjugated antibodies specific for the desired cell surface proteins or with tetramers at 4′C for 30 min. The stained cells were washed twice in the FACS buffer before being analyzed on a BD FACSAria II. […]"}, "CD8^+ T cells": {"test_system": "CD8^+ T cells", "assay": "IFN-γ Enzyme-linked ImmunoSpot of CD8+ T cells with C1R or C1R.Qa-1^b antigen-presenting cells", "type": "cell-based, K^b−/−D^b−/− mice", "conditions": "in the presence of C1R.Qa-1^b cells", "procedure": "FIG. 1A-1C. Portion of CD8^+ T cells reactive to the pool of overlapping peptides (OLPs) covering the whole length of mouse MOG was Qa-1^b restricted. (A) A schematic view of the mouse MOG OLP library. 15mer peptides across the whole length of mouse MOG (247 amino acids) and overlapped by 11 amino acids were synthesized. A pool of the 59 OLPs (“MOG_pool”) at a concentration of 4.2 μg/ml for each peptide was then generated for stimulating CD8^+ T cells purified from K^b−/−D^b−/− mice. (B) Experimental design for Enzyme-linked ImmunoSpot assay in “C”: CD8^+ T cells purified from K^b−/−D^b−/− mice were stimulated with the MOG_pool in vitro on a weekly basis. Before being stimulated each time, the CD8^+ T cells were monitored for response to the MOG_pool, using IFN-γ Enzyme-linked ImmunoSpot, in the presence of either C1R or C1R.Qa-1^b cells as antigen presenting cells. (C) Enzyme-linked ImmunoSpot data on day 7 were shown and were representative of three independent experiments. The number at the upper left corner of each well is the absolute number of IFN-γ spot forming cells (SFCs) in the corresponding well (50,000 CD8 T cells/well).\nFIG. 2A-2F. Recognition of multiple OLPs by the MOG_pool-reactive CD8^+ T cell lines depended on Qa-1^b. (A-D) MOG_pool-reactive CD8^+ T cell lines were generated as described in FIG. 1. […]"}, "Qa-1^b": {"target": "Qa-1^b (Mus musculus, UniProt P06339)", "sequence (P06339 21-295 limits assumed)": "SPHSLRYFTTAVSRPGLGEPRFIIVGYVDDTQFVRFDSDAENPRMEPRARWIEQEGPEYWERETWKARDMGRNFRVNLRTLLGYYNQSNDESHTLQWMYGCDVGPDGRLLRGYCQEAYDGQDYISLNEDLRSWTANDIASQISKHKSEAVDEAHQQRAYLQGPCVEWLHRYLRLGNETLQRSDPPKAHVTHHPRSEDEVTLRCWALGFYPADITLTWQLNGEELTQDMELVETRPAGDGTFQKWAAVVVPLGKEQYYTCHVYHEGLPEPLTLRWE", "sequence (P61769 21-119 partner)": "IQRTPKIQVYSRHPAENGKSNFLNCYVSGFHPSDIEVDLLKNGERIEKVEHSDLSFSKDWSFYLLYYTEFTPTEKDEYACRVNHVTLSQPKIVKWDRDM", "assay": "In vitro refolding of peptide with recombinant Qa-1^b protein and β2 microglobulin", "type": "binding", "conditions": "10° C., four days; size exclusion, anion exchange, tetramer formation", "procedure": "FIG. 4A-4D. MOG196 can bind to Qa-1^b and stimulate MOG196-specific Qa-1^b-restricted CD8^+ T cells. (A) MOG196 was incubated with recombinant Qa-1^b and β2 microglobulin in a protein refolding buffer at 10° C. under gentle agitation (60 rpm) for four days. The solution was separated by a size exclusion column. Peak “A” and “B” represented typical non-specific protein aggregates and correctly refolded MOG196/Qa-1^b monomer, respectively. (B) Monomers in peak B of panel “A” were further analyzed by an anion exchange chromatography. (C) Proteins in peaks “A”, “B1”, and “B2” were biotinylated and portions of the biotinylated proteins were incubated with streptavidin (SA) to examine formation of tetramers. The biotinylated proteins and corresponding tetramers were analyzed in a non-denature protein gel. Arrows show protein bands for MOG196/Qa-1^b monomers. “−”: without SA; “+”: with SA; “pk A”: peak A; “pk B1”: peak B1; “pk B2“ ” peak B2; “Std”: a protein standard. […] The CD8^+ T cells were analyzed for binding to Qa-1^b/MOG196 tetramer at days 0, 7, and 14. […]\nMOG196 binds to Qa-1^b and activates MOG196—specific Qa-1^b—restricted CD8^+ T cells in vitro. […] Subsequently, the biotinylated proteins and streptavidin-conjugated tetramers were analyzed in a non-denature protein gel. […]"}, "[2]": {"test_system": "Qa-1^b/MOG196 tetramer^+CD8^+ T cells", "assay": "CD122 and Ly49 expression on Qa-1^b/MOG196 tetramer+ CD8+ T cells after immunization with MOG196-pulsed DC2.4 cells", "type": "in vivo, C57BL/6 mice", "conditions": "intravenous MOG196-pulsed DC2.4 cells at days 0 and 10, analysis ten days after last immunization", "description": "FIG. 7A-7G. Immunization with DCs pulsed with MOG196 activates Qa-1^b/MOG196 tetramer^+ cells that specifically accumulate in cervical lymph nodes. (A) C57BL/6 mice (5 mice/group) were immunized with MOG35-55 for EAE. […] (B) Representative plots of Qa-1^b/MOG196tetramer^+ cells among CD8^+ T cells in cervical lymph nodes and spleens. (C) Cumulative data of Qa-1^b/MOG196tetramer^+ cells from five mice. *P<0.05. Two-way ANOVA test. (D) Representative plots of I-A^b/MOG38-49 tetramer^+ cells among CD8^− T cells in cervical lymph nodes and spleens. (E) Cumulative data of I-A^b/MOG38-49 tetramer^+ cells from five mice. *P<0.05. Two-way ANOVA test. (F) Experimental design for “G”: C57BL/6 mice were intravenously immunized with MOG196-pulsed DC2.4 cells at days 0 and 10. […]\nMultichromatic flow cytometry: Briefly, about 0.5-1×10^6 cells in a FACS buffer (PBS containing 1% FBS and 0.05% sodium azide) were stained with various fluorescence-conjugated antibodies specific for the desired cell surface proteins or with tetramers at 4′C for 30 min. The stained cells were washed twice in the FACS buffer before being analyzed on a BD FACSAria II.\nCD122 and Ly49 were expressed in a portion of the Qa-1^b/MOG196 tetramer+ cells. […] Expression of these two markers on the Qa-I^b/MOG196 tetramer+ cells was analyzed."}}, "note": "“Also recorded” adds a separate entry of the source. Marks after values point to notes of the source that are not given here.", "data": [{"sequence": "IICYNWLHR [MOG196]", "values": [{"measurement": "Qa-1^b/MOG196 tetramer+ cells in CD8^+ T cell lines", "setting": "[1]", "value": "could be detected"}, {"measurement": "stimulation of an OLP105-reactive CD8^+ T cell line by truncated OLP105 peptides (IFN-γ SFCs)", "setting": "CD8^+ T cells", "value": "minimal and optimal epitope in OLP105; also recorded: highest response"}, {"measurement": "binding to Qa-1^b (refolding into MOG196/Qa-1^b/β2m monomer)", "setting": "Qa-1^b", "value": "could bind to Qa-1^b"}, {"measurement": "tetramer+ cells expressing CD122", "setting": "[2]", "value": "about 22.6%"}, {"measurement": "tetramer+ cells expressing both CD122 and Ly49", "setting": "[2]", "value": "about 7.2%"}]}]}
